Data on 71 compounds can be found in ChEMBL document CHEMBL4033778, “Species-Selective Pyrimidineamine Inhibitors of Trypanosoma brucei S-Adenosylmethionine Decarboxylase” (J Med Chem, 2018).

Test [1] in a line: Inhibition of recombinant Trypanosoma brucei N-terminal His6-tagged AdoMetDC/prozyme hetrodimer expressed in Escherichia coli BL21/DE3 cells at pH 7.2 by RapidFire-MS-based enzyme activity assay.
For test [2], the target named is T1, S-adenosylmethionine decarboxylase proenzyme (Homo sapiens, UniProt P17707).
T1 sequence (P17707 whole entry): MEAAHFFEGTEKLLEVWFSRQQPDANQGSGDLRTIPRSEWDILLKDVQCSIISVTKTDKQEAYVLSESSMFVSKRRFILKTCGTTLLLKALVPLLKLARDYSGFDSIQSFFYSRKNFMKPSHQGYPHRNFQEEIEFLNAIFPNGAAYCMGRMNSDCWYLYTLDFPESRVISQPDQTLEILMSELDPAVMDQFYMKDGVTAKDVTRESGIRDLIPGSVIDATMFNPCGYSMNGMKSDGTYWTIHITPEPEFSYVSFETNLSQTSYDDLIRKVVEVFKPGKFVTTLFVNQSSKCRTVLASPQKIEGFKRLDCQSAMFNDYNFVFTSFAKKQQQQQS
Description: Inhibition of recombinant human N-terminal His6-tagged AdoMetDC expressed in Escherichia coli BL21/DE3 cells at pH 7.2 by RapidFire-MS-based enzyme activity assay.

In test [3] the target is T2, S-adenosylmethionine decarboxylase proenzyme (Homo sapiens) (UniProt P17707).
T2 sequence (whole entry): T1 sequence (P17707 whole entry)
The experiment in a line: Inhibition of recombinant human N-terminal His6-tagged AdoMetDC expressed in Escherichia coli BL21/DE3 cells at 180 uM at pH 7.2 by RapidFire-MS-based enzyme activity assay.

Regarding `Cc1cc(Nc2cc(Cl)c(N3CCOCC3)c(Cl)c2)nc(N)n1`, the IC50 in test [1] and in test [2] was above 180 µM throughout.

For `Cc1cc(Nc2ccccc2C)nc(N)n1`, the IC50 in test [1] and in test [2] was above 180 µM in each case.

For the compound `Cc1cc(Sc2cc(Cl)cc(Cl)c2)nc(N)n1`, the IC50 in test [1] and in test [2] was above 180 µM throughout.

Take `Cc1cc(Nc2ccc(-c3cc(Cl)cc(Cl)c3)cc2)nc(N)n1`: the IC50 in test [1] and in test [2] was above 180 µM in each case.

For `Cc1cc(N(C)c2cc(Cl)cc(Cl)c2)nc(N)n1`, the IC50 in test [1] was 81 µM; in test [2] it was above 180 µM.

As for `Cc1cc(Nc2cc(C(F)(F)F)cc(C(F)(F)F)c2)nc(N)n1`, the IC50 in test [1] is 11 µM; in test [2] it was above 180 µM.

As to `Cc1cc(Nc2cc(Cl)cc(-c3cc4ccccc4c4ccccc34)c2)nc(N)n1`, the IC50 in test [1] and in test [2] was above 180 µM in each case.

`Cc1cc(Nc2cc(Cl)c(Cl)c(Cl)c2)nc(N)n1`: the IC50 in test [1] is 11 µM; in test [2], above 63 µM.

In the case of `Cc1cc(Nc2cc(Cl)cc(-c3ccsc3)c2)nc(N)n1`, in test [1], the IC50 was 26 µM. The inhibition in test [3] stood at 30%.

For `Cc1cc(Nc2cc(Br)cc(S(F)(F)(F)(F)F)c2)nc(N)n1`, the IC50 in test [1] was 8.7 µM; in test [2] it was above 180 µM.

As to `Cc1cc(Nc2cc(Cl)cc(-c3ccccc3Cl)c2)nc(N)n1`, the IC50 in test [1] is 26 µM; in test [2], above 180 µM.

As to `Cc1cc(Nc2cccc(F)c2)nc(N)n1`, the IC50 in test [1] and in test [2] was above 180 µM in each case.

As to `Cc1cc(Nc2cc(Cl)c(C)c(Cl)c2)nc(N)n1`, the IC50 in test [1] is 20 µM; in test [2], above 63 µM.

As to `Nc1nc2c(c(Nc3cc(Cl)cc(Cl)c3)n1)CCC2`, the IC50 in test [1] was 12 µM; in test [2], above 21 µM.

On to `CC(C)c1cc(Nc2cc(Cl)cc(Cl)c2)nc(N)n1`, for which the IC50 in test [1] was 12 µM; in test [2] it was above 180 µM.

Regarding `Cc1cc(Nc2cc(Cl)cc(-c3ccc(F)cc3)c2)nc(N)n1`, the IC50 in test [1] was 1.1 µM; in test [2] it was above 21 µM.

As to `Cc1cc(Nc2cc(Cl)cc(-c3ccc(Cl)c(C(F)(F)F)c3)c2)nc(N)n1`, the IC50 in test [1] is 53 µM; in test [2], above 180 µM.

`Cc1cc(Nc2cc(Cl)cc(Cl)c2)nc(N(C)C)n1`: the IC50 in test [1] and in test [2] was above 180 µM throughout.

In the case of `Cc1cc(Nc2cc(Cl)c(N3CCCCC3)c(Cl)c2)nc(N)n1`, the IC50 in test [1] and in test [2] was above 180 µM each time.

Consider `Cc1cc(Nc2cc(F)cc(F)c2)nc(N)n1`, for which the IC50 is 180 µM in test [1] and above 180 µM in test [2].

For the compound `Cc1cc(Nc2cc(Cl)cc(-c3cncnc3)c2)nc(N)n1`, the IC50 in test [1] and in test [2] was above 180 µM throughout.

For the compound `Cc1cc(Nc2cc(Cl)cc(S(F)(F)(F)(F)F)c2)nc(N)n1`, the half-inhibitory concentration (IC50) in test [1] was 16 µM; in test [2], above 180 µM.

On to `Cc1cc(Nc2cc(Cl)cc(-c3cc4ccccc4s3)c2)nc(N)n1`, for which the results for the IC50 in test [1] and in test [2] were 41 µM and above 180 µM, respectively.

As for `Cc1cc(Nc2cc(Cl)c(F)c(Cl)c2F)nc(N)n1`, the figures for the IC50 in test [1] and in test [2] were 2.2 µM and above 63 µM, respectively.

On to `Cc1cc(Nc2cc(Br)cc(OCC(C)C)c2)nc(N)n1`, for which the results for the IC50 in test [1] and in test [2] were 11 µM and above 180 µM, respectively.

Take `Cc1cc(Nc2cc(Cl)cc(-c3ccc(Cl)c(Cl)c3)c2)nc(N)n1`: the IC50 in test [1] was 102 µM; in test [2], above 180 µM.

Take `COc1ccc(-c2cc(Cl)cc(Nc3cc(C)nc(N)n3)c2)cc1`: the IC50 is 2.3 µM in test [1] and above 180 µM in test [2].

For the compound `Cc1cc(Nc2ccccc2)nc(N)n1`, the IC50 in test [1] and in test [2] was above 180 µM throughout.

As to `CSc1cccc(Nc2cc(C)nc(N)n2)c1`, the IC50 in test [1] is 149 µM. For the same compound, the inhibition in test [3] came out at 23%.

Consider `Cc1cc(Nc2cc(C(=O)Nc3cc(Cl)cc(Cl)c3)cc(C(=O)Nc3cc(Cl)cc(Cl)c3)c2)nc(N)n1`, for which the IC50 in test [1] and in test [2] was above 180 µM in each case.

For the compound `Cc1cc(Nc2ccc(C(C)C)cc2)nc(N)n1`, the IC50 in test [1] and in test [2] was above 180 µM each time.

For `Cc1cc(Nc2cc(Cl)cc(C(F)(F)F)c2)nc(N)n1`, in test [1], the IC50 turned out to be 3.9 µM. The inhibition in test [3] stood at 39%.

For `Cc1cc(Nc2cc(Cl)c(OC(F)F)c(Cl)c2)nc(N)n1`, the IC50 in test [1] and in test [2] was above 63 µM each time.

Take `Nc1nc(Nc2cc(Cl)cc(Cl)c2)cc(N2CCOCC2)n1`: the IC50 in test [1] and in test [2] was above 180 µM in each case.

On to `CCOc1cc(Br)cc(Nc2cc(C)nc(N)n2)c1`, for which, in test [1], the IC50 came to 6 µM. Besides, the inhibition in test [3] was determined as 36%.

For `CSc1ccccc1Nc1cc(C)nc(N)n1`, the IC50 in test [1] and in test [2] was above 180 µM in each case.

On to `Cc1cc(Nc2cc(Cl)cc(-c3cnn(C)c3)c2)nc(N)n1`, for which the IC50 in test [1] is 164 µM; in test [2], above 180 µM.

In the case of `Cc1cc(Nc2cc(Cl)cc(C#N)c2)nc(N)n1`, the IC50 in test [1] was 3.9 µM. Further, the inhibition in test [3] turned out to be 29%.

For `COc1cc(Nc2cc(C)nc(N)n2)cc(OC)c1`, in test [1], the IC50 is 17 µM. Further, the inhibition in test [3] came out at 21%.

As to `Cc1cc(Nc2ccc(C(F)(F)F)cc2)nc(N)n1`, the IC50 in test [1] and in test [2] was above 180 µM throughout.

In the case of `Cc1ccc(-c2cc(Cl)cc(Nc3cc(C)nc(N)n3)c2)cc1`, the IC50 was 4.6 µM in test [1] and above 63 µM in test [2].

On to `CCc1ccc(Nc2cc(C)nc(N)n2)cc1`, for which the IC50 in test [1] and in test [2] was above 180 µM in each case.

Regarding `Cc1cc(Nc2cc(Cl)cc(-c3ccc4c(c3)OCO4)c2)nc(N)n1`, the IC50 in test [1] is 6.2 µM; in test [2], above 21 µM.

Regarding `Nc1nc(Nc2cc(Cl)cc(Cl)c2)cc(C(F)(F)F)n1`, the IC50 in test [1] and in test [2] was above 180 µM throughout.

As for `Cc1cc(Nc2ccccc2Br)nc(N)n1`, the IC50 in test [1] and in test [2] was above 180 µM each time.

Turning to `Cc1cc(Nc2cc(Cl)cc(Br)c2)nc(N)n1`, the IC50 in test [1] was 2.2 µM. The inhibition in test [3] is 33%.

As to `Cc1cc(NCc2cc(Cl)cc(Cl)c2)nc(N)n1`, the IC50 was 139 µM in test [1] and above 180 µM in test [2].

As to `Cc1cc(Nc2cc(Cl)cc(-c3ccc(C#N)cc3)c2)nc(N)n1`, the IC50 was 7.6 µM in test [1] and above 7 µM in test [2].

As to `Cc1cc(C)cc(Nc2cc(C)nc(N)n2)c1`, the IC50 in test [1] is 141 µM; in test [2] it was above 180 µM.

On to `Cc1cc(Nc2cc(C(C)(C)C)cc(C(C)(C)C)c2)nc(N)n1`, for which the IC50 in test [1] and in test [2] was above 63 µM in each case.

`Cc1cc(Nc2cc(Cl)cc(-c3ccc(C(F)(F)F)cc3)c2)nc(N)n1`: the 50% inhibitory concentration (IC50) in test [1] is 4.7 µM; in test [2], above 21 µM.

Turning to `CCCCOc1cc(Br)cc(Nc2cc(C)nc(N)n2)c1`, the IC50 is 4.5 µM in test [1] and above 180 µM in test [2].

`Cc1cc(Nc2cc(Cl)cc(-c3ccc4ccccc4c3)c2)nc(N)n1`: the results for the IC50 in test [1] and in test [2] were 57 µM and above 180 µM, respectively.

Turning to `CCc1cc(Nc2cc(C)nc(N)n2)cc(-c2ccc(F)cc2)c1`, the IC50 in test [1] was 2.7 µM; in test [2], above 180 µM.

For `Cc1cc(Nc2cc(Cl)c(N(C)C)c(Cl)c2)nc(N)n1`, the IC50 in test [1] and in test [2] was above 180 µM each time.

In the case of `Cc1cc(Nc2cc(Cl)cc(-c3cc(C(F)(F)F)cc(C(F)(F)F)c3)c2)nc(N)n1`, the IC50 in test [1] was 28 µM; in test [2] it was above 180 µM.

For `Cc1cc(Nc2cc(Cl)cc(-c3ccc(Cl)cc3)c2)nc(N)n1`, the IC50 in test [1] was 1.7 µM; in test [2] it was above 63 µM.

With `Cc1cc(Nc2cc(C(=O)O)cc(C(=O)O)c2)nc(N)n1`, the IC50 in test [1] and in test [2] was above 180 µM in each case.

In the case of `Cc1cc(Nc2cc(-c3ccccc3)cc(-c3ccccc3)c2)nc(N)n1`, the IC50 in test [1] and in test [2] was above 180 µM each time.

For `Nc1cccc(Nc2cc(Cl)cc(Cl)c2)n1`, the IC50 in test [1] and in test [2] was above 180 µM each time.

For `Nc1cc(Nc2cc(Cl)cc(Cl)c2)ccn1`, the IC50 in test [1] was 22 µM; in test [2], above 180 µM.

Regarding `CNc1nc(C)cc(Nc2cc(Cl)cc(Cl)c2)n1`, the IC50 in test [1] and in test [2] was above 63 µM each time.

With `Cc1cc(Nc2cc(Cl)cc(-c3ccc4nonc4c3)c2)nc(N)n1`, the IC50 is 27 µM in test [1] and above 180 µM in test [2].

In the case of `Cc1cc(Nc2cc(F)cc(Cl)c2)nc(N)n1`, the IC50 is 32 µM in test [1] and above 180 µM in test [2].

Take `Cc1cc(Nc2cc(Cl)cc(-c3ccc(O)cc3)c2)nc(N)n1`: the results for the IC50 in test [1] and in test [2] were 143 µM and above 180 µM, respectively.

As for `Cc1cc(Nc2cc(Cl)cc(-c3cccc(Cl)c3)c2)nc(N)n1`, the figures for the IC50 in test [1] and in test [2] were 81 µM and above 180 µM, respectively.

Take `Cc1cc(Nc2ccc(Cl)cc2C)nc(N)n1`: the IC50 in test [1] and in test [2] was above 180 µM throughout.

As for `Cc1cc(Nc2cc(Cl)cc(Cl)c2)cc(N)n1`, the IC50 is 15 µM in test [1] and above 180 µM in test [2].

For the compound `Cc1cc(Nc2cc(Cl)cc(-c3ccc(-c4ccccc4)cc3)c2)nc(N)n1`, the IC50 in test [1] was 167 µM; in test [2], above 180 µM.

Turning to `CCc1cc(Br)cc(Nc2cc(C)nc(N)n2)c1`, the IC50 in test [1] is 7.6 µM; in test [2], above 180 µM.

For `Nc1ccnc(Nc2cc(Cl)cc(Cl)c2)c1`, the IC50 in test [1] and in test [2] was above 180 µM throughout.
